Our source for the LD50 and Ratio values is ChEMBL document CHEMBL3046004, “Esterase-mediated resistance to pyrethroids in field populations of Helicoverpa armigera (Lepidoptera: Noctuidae) from Central Africa” (2009).

Format in all cases: functional
In test [1] the test system is Helicoverpa armigera. Briefly: Insecticidal activity against fourth-instar larval stage of pyrethroid-resistance Helicoverpa armigera laboratory strain GS-RR08 assessed as mortality applied topically onto thorax measured after 48 hr in presence of 3.2 microg/larva […].
The test system of test [2] is Helicoverpa armigera. Briefly: Insecticidal activity against fourth-instar larval stage of Helicoverpa armigera Foumbot isolated from tomato plant assessed as mortality applied topically onto thorax 30 min after 10 microg/larva cytochrome P450 monooxygenase inhibitor, PBO application measured after 48 hr.
Test [3] deals with Helicoverpa armigera. Nature of the test: Synergism factor, ratio of LD50 for fourth-instar larval stage of Helicoverpa armigera field strain Gaschiga isolated form hyptis plant to LD50 for fourth-instar larval stage of Helicoverpa armigera field strain Gaschiga isolated from hyptis plant in presence of 10 microg/larva cytochrome P450 monooxygenase inhibitor, PBO.
Test [4] concerns Helicoverpa armigera. Briefly: Insecticidal activity against fourth-instar larval stage of pyrethroid-susceptible Helicoverpa armigera laboratory strain BK-77 assessed as mortality applied topically onto thorax measured after 48 hr.
For test [5], the system named is Helicoverpa armigera. Nature of the test: Insecticidal activity against fourth-instar larval stage of Helicoverpa armigera field strain Tchollire isolated from cotton plant assessed as mortality applied topically onto thorax measured after 48 hr.
Test [6] concerns Helicoverpa armigera. Briefly: Insecticidal activity against fourth-instar larval stage of Helicoverpa armigera field strain Djalingo isolated from cotton plant assessed as mortality applied topically onto thorax measured after 48 hr.
Test [7] has as its system Helicoverpa armigera. Briefly: Synergism factor, ratio of LD50 for fourth-instar larval stage of Helicoverpa armigera field strain Ngong to LD50 for fourth-instar larval stage of Helicoverpa armigera field strain Ngong in presence of 10 microg/larva cytochrome P450 monooxygenase inhibitor, PBO.
Test [8] relates to Helicoverpa armigera. Briefly: Insecticidal activity against fourth-instar larval stage of Helicoverpa armigera field strain Home isolated from cotton plant assessed as mortality applied topically onto thorax 30 min after 10 microg/larva cytochrome P450 monooxygenase inhibitor, PBO application measured after 48 hr.
Test [9] concerns Helicoverpa armigera. Briefly: Insecticidal activity against fourth-instar larval stage of Helicoverpa armigera field strain Home isolated from cotton plant assessed as mortality applied topically onto thorax measured after 48 hr.
The subject of test [10] is Helicoverpa armigera. Briefly: Resistance factor, ratio of LD50 for fourth-instar larval stage of Helicoverpa armigera field strain Home to LD50 for fourth-instar larval stage of pyrethroid-susceptible Helicoverpa armigera laboratory strain BK-77.

With `CC1(C)C(C=C(Cl)Cl)C1C(=O)OC(C#N)c1cccc(Oc2ccccc2)c1` (stereo not drawn) [ALPHA-CYPERMETHRIN], the LD50 in the test on Helicoverpa armigera [1] is 226.6 microgAi/g; with Helicoverpa armigera [2] it was 63 microgAi/g; with Helicoverpa armigera [4] it was 0.5 microgAi/g; with Helicoverpa armigera [5], 48 microgAi/g; in the test with Helicoverpa armigera [6], 91.5 microgAi/g; in the test with Helicoverpa armigera [8], 21.3 microgAi/g. Moreover, in the test on Helicoverpa armigera [9], the LD50 turned out to be 43.9 microgAi/g. The Ratio with Helicoverpa armigera [3] came out at 25; in the test with Helicoverpa armigera [7], 37.5; in the test on Helicoverpa armigera [10], 93.
